Series [1] deals with MucilAir™-HF tissues. As to the kind of experiment: Mucin-5AC (Muc5AC) immunohistochemistry, goblet cells, MucilAir-HF model. Format: cell-based, human. Conditions: 30 min/day exposure, average ± standard deviation. Here is the method: (§1) Tissues were handled as recommended by manufacturer’s instruction.
The presence of goblet cells was assessed through immunohistochemistry analysis for mucin-5AC protein (Muc5AC) detection. IL-13 and cytomix were used as positive controls (see item 2.5.2 for additional details). On last day of experiment (day 12), cultures (n = 3 tissues/group) were rinsed in PBS and fixed by immersion in 4% formaldehyde for 20 min. Fixed tissues were embedded into paraffin, sectioned, and processed for staining on paraffin sections. The immunostaining of the sections was performed with the Benchmark automated platform (Ventana-Roche, Hoffmann-La Roche Ltd, Basel, Switzerland) and the Autostainer Link 48 (Agilent, Santa Clara, CA. United States) with the detection kit Ultraview DAB (DAB chromogeny, Hoffmann-La Roche Ltd). Sections were pre-treated using heat mediated antigen retrieval with sodium citrate buffer, pH 6, for 20 min. The section was then incubated with recombinant anti-mucin 5AC antibody (ab3649, Abcam) for 1 h at room temperature, followed by biotinylated secondary antibody (Dako) and HRP detection (HRP conjugated ABC system, Vector Laboratories), according to manufacturer’s instruction. The section was then counterstained with hematoxylin (Sigma-Aldrich) and mounted with DPX, a synthetic non-aqueous mounting medium for microscopy. Digital images of the slides were then acquired, and quantitative image analysis performed using Image Pro Plus 6.2 (Media Cybernetics) to quantify the goblet cells on a section. The whole images of stained sections were scanned, and an average 15 images/section were analysed. The results are the ratio between the mucin 5AC stained area and the total surface area of the epithelium on the section.

Series [2] concerns MucilAir™-HF tissues. Briefly: Cytokine and chemokine measurements (Luminex), MucilAir-HF model. Format: cell-based, human. As to conditions: for Cytokines/chemokines modulated (in words): MucilAir-HF; for MinPoD: MucilAir™-HF model, biomarker IL-1ra. As for the experimental part:
as §1
Basolateral medium samples of the tissue cultures were collected and stored at −80°C until analysis. The following cytokines/chemokines were quantified using customized Human Luminex® Discovery Assay kits (R&D Systems): chemokine (C-C motif) ligand (CCL) 2, CCL7, CCL26, C-X-C motif chemokine ligand (CXCL) 10, CXCL11, intercellular adhesion molecule-1 (ICAM-1), IL-1α, IL-6, IL-8, matrix metalloproteinase (MMP)-1, MMP-2, MMP-3, MMP-7, MMP-9, osteopontin, interferon (IFN)-γ, IL-1 receptor antagonist (IL-1Ra), urokinase-type plasminogen activator receptor (uPAR), tumour necrosis factor (TNF)-α, urokinase (uPA), serpin E1, tissue inhibitor of metalloproteinase 1 (TIMP-1), and TGF-β1. Samples were measured in technical triplicates according to the manufacturer’s recommendation using a Luminex Bio-Plex® 200 RUO System ([…]).

For series [3], the system named is MucilAir™-HF tissues.
Description: (§4) The MucilAir™-HF system (EP11MD) and ready-to-use chemically-defined, serum-free culture medium (EP04AM) were obtained from Epithelix Sàrl (Geneva, Switzerland). Tissues were handled as recommended by manufacturer’s instruction. […] After differentiation for 42 up to 81 days at the air-liquid interface (ALI) under standard culture conditions (37°C ± 1°C in a humidified atmosphere of 5% ± 1% CO2 in air), tissues were washed 3 days before first exposure and each insert was inspected for beating cilia and mucus production. This washing step (one or twice with PBS) were performed to remove accumulated mucus and cell debris to minimize the risk of interference with the toxicity tests. Over 12-day experimental period, washing steps as well as media changes was performed every 2-3 days.
(§5) For toxicity testing performed over a 12-day experimental period, tissues were daily exposed to 3 different concentrations of each test material for 30 min or 6 h (for detailed information on each material see Table 1). […]
(§6) TEER measurements were performed daily after test item exposure to evaluate tissue barrier function. Tissues were washed, 200 µL of buffered saline solution was added to the apical compartment of MucilAir™-HF cultures, and resistance was measured using an EVOMX volt-ohmmeter with chopstick style probes (World Precision Instruments, Stevenage, UK). […]
For series [4], the system named is MucilAir™-HF tissues. As to the kind of experiment: TEER analysis of tissue barrier integrity, MucilAir-HF model. As to conditions: Day 4, biomarker TEER.
Description: as §4, §5, §6
Series [5] has as its system MucilAir™-HF tissues. The source holds these as a separate data set.
Description: as §4
For toxicity testing performed over a 12-day experimental period, tissues were daily exposed to 3 different concentrations of each test material for 30 min or 6 h (for detailed information on each material see Table 1). […] Tissues were exposed by test materials via nebulization, liquid apical application, or liquid basal application. These differences in the exposure type were due to solubility of the test material, route of exposure (inhaled or systemic), or comparison with previous publications. […]
The test system of series [6] is EpiAlveolar™ tissues. As to the kind of experiment: Cytokine and chemokine measurements (Luminex), EpiAlveolar model, Laboratory 1. Format: cell-based, human. Conditions: for Cytokines/chemokines modulated (in words): EpiAlveolar, Laboratory 1; for MinPoD: EpiAlveolar™ model Laboratory-1. From the text: (§2) EpiAlveolar™ system was obtained from MatTek Corporation (Ashland, MA, United States, cat. no. ALV-100-FT-MAC, ALV-100-FT-MAC-PE12). According to the supplier, the tissue systems were derived from primary human alveolar epithelial cells and primary pulmonary fibroblasts, both from a same healthy donor, and pulmonary endothelial cells from another healthy donor, and THP-1 cell line derived macrophages. These tissues were differentiated by the manufacturer prior to shipping to the testing facilities. […] TEER was measured and only systems with confirmed quality of the tight junction barrier (>300 Ω.cm^2) and with approved morphological inspection were used in the experiments.
(§3) Vehicle control groups were also tested in parallel. Except for Doxorubicin (which underwent a 6-day chemical exposure + 6-day without exposure), exposures were conducted daily, on 12 consecutive days with different concentrations, through aerosol, apical or basolateral liquid exposure methods (Table 2). […] Each of the insert holders of the instrument base module was filled with Hanks’ Balanced Salt solution (HBSS) or PBS prior to placing the tissue inserts. Then, each test item solution/suspension was placed into the nebulizer reservoir for aerosol material exposure. The nebulizer was activated until the material solution/suspension was consumed and discharged into the main exposure chamber and allowed to fully gravity deposit out of the Cloud 12 (determined using a QCM). After exposure, the tissues were placed back into their multi-well culture plates containing the same medium, a further aliquot of media was added apically (20 µL for Akemi, 75 µL for all others except LPS) and returned to incubator until next exposure. Media used during the 6- or 12-day experimental period was prepared without Supplement X by MatTek. In medium exposure, the apical or basolateral liquid of each tissue was removed and replaced with each test item medium solution/suspension and returned to the incubator until the next exposure. After the beginning of the exposure cycles, tissues were only re-fed with new culture medium every 3-4 days.
In Laboratory 1, basal media samples collected from the tissues were collected and stored at ≤ −60°C until analysis. For cytokine/chemokine measurements, 17-Plex, duplex and single-plex analyte detection panels were run on the samples using Human Luminex™ Multiplex Immunoassay kits (R&D Systems). The analytes quantified were TNF-α, IL-6, MMP-9, MMP-3, MMP-1, MMP-2, CXCL10, CCL2, IFN-γ, IL-1ra, CCL7, IL-1a, CCL26, CXCL9, VCAM-1, ICAM-1, and CXCL11 in a 17-plex assay; whereas IL-8 and Serpin E1 in a duplex assay and TGF-β1 in a single-plex assay.

Series [7] has as its system EpiAlveolar™ tissues. Briefly: Cytokine and chemokine measurements (Luminex), EpiAlveolar model, Laboratory 2. The class given is cell-based, human. Conditions: for Cytokines/chemokines modulated (in words): EpiAlveolar, Laboratory 2; for MinPoD: EpiAlveolar™ model Laboratory-2.
Description: as §2, §3
In Laboratory 2, apical culture media samples of the tissues were collected, stored at −80°C until shipment, in dry ice with temperature monitor control, to Unilever SERS, where the analyses were performed. Upon receipt, samples were again stored in the −80°C until the analysis using Human Luminex® Discovery Assay kits (R&D Systems). The same readouts investigated for MucilAir™-HF tissue samples were quantified in these samples.

Series [8] deals with EpiAlveolar™ tissues. Briefly: High-throughput transcriptomics (RNA-seq, PLIER latent variables), EpiAlveolar model, Laboratory 2. The class given is cell-based, human. As to conditions: for MinPoD: Transcriptomics.
A further series concerns EpiAlveolar™ model. As to the kind of experiment: Bioactivity exposure ratio (BER): lowest in vitro PoD of EpiAlveolar readouts / lower respiratory tract exposure estimate or Cmax. Also noted: species or system human. Conditions: Plasma.
The conditions of series [9]: human, therapeutic dose, infusion of 60 mg/m^2 for 40 min; ref Barpe et al. (2010); cited from earlier work.
For series [10] the following is noted: cited from earlier work; for Risk: Scenario Plasma; for Risk classification: per benchmark chemical-exposure scenario (product and exposure scenario of the same line), based on historical safety decisions, ref References column of Table 3.
The subject of series [11] is EpiAlveolar™ tissues. Briefly: Histology and immunohistochemistry, EpiAlveolar model, Laboratory 2. Conditions: Laboratory 2, 12-day period.
Description: To evaluate the quality of EpiAlveolar™ tissues over the 12-day experimental period, histological and immunohistochemistry assessments for detection of pan-cytokeratin, vimentin, aquaporin 5, pro-surfactant C, CD68, caspase-3, and/or αSMA were performed by Laboratories 1 and 2.
Tissues were kept in 10% phosphate buffered formalin at 4°C for up to 48 h. Samples were then fixed in 70% ethanol and two strips of membrane were trimmed from each sample, processed, and paraffin-embedded to be cut at 5 µm thick sections and mounted to glass slides. The slides were then dewaxed in xylene, hydrated using graded industrial methylated spirit (70-100%) and stained with H&E for light microscope analysis.
For immunohistochemistry analysis, tissue sections-containing microscope slides were obtained and processed using a Discovery Ultra Staining System (Roche), according to manufacturer’s instructions, except for anti-CD68 staining that was manually performed. The slides were incubated at 60°C for 8 min and then deparaffinized at 69°C for 24 min. After that, slides were incubated with inhibitor CM or peroxidase blocking solution (for anti-CD68 staining) for 8 min at room temperature. The slides were then incubated at room temperature with the following primary monoclonal antibodies, following manufacturer’s instructions: anti-α smooth muscle actin (αSMA) at 1:500 (Leica Microsystems Ltd), anti-CD68 at 1:3000 for macrophages (11192-T24, Sino Biological), anti-pro-surfactant C protein at 1:1000 (AB3786, Sigma-Aldrich), anti-caspase-3 at 1:10000 (AB4051, Abcam), anti-aquaporin 5 (31661, Invitrogen), anti-pan-cytokeratin for epithelial cells (760-2595, Roche), and anti-vimentin for mesenchymal cells (790-2917, Roche). […]
A board-certified pathologist evaluated the changes (epithelial thinning, separation/detachment areas, necrosis, collagen, and presence of apoptotic cells, myofibroblasts, and type II pneumocytes) using a semi-quantitative scoring system (Table 2).
In a further series the test system is patients. More on the design: method as in Budin et al., 2022. As to conditions: ref Budin et al., 2022; cited from earlier work.
[12] abbreviates: Day 4, EpiAlveolar™ model Laboratory-2.
The mark [13] stands for this setting: Day 8, EpiAlveolar™ model Laboratory-1.
Where [14] appears, read: Day 8, EpiAlveolar™ model Laboratory-2.
Where [15] appears, read: Day 12, EpiAlveolar™ model Laboratory-1.
[16] abbreviates: Day 12, EpiAlveolar™ model Laboratory-2.

Entries after “also recorded” stand apart in the source; their conditions may differ. Counter-ions that a name gives are not always drawn.

Description for EpiAlveolar™ model: (§7) Concentration and time-dependent changes in the bioactivity readout data were analyzed using a nonlinear state space model, based on the work of [Svensson and Schön (2017)]. […] All bioactivity readouts were included in the analysis (where available), i.e., measurements for tissue integrity loss (TEER) and functionality (MCC, CBF, and mucin secretion), cytokine/chemokine secretion, and the transcriptional LV values obtained using PLIER. The datasets were grouped so that a single state space model was used to capture all the responses (across time, concentration, and test material) for a single readout obtained within a particular study (laboratory/tissue model). Data were transformed to the log base 10 scale and normalized using z-scores, so that for a given readout Ytij from a laboratory/tissue model, the corresponding normalized value was given by y^tij=⁡log⁡10(Ytij)−μ)/σ . Here, the indexes i,j,t correspond to the different test materials, concentrations and timepoints, μ and σ are the sample mean and standard deviation of the control readout values obtained for the first timepoint. All measurement were then scaled so that the maximum median value across different replicates was one for all timepoints, readouts and test materials within a given laboratory/tissue model.
The model consists of state variables xti,j , response variables ytij and the concentrations of material c^i,j . The response variables yti,j represent the normalized (see below) readout values at timepoint t for material exposure i,j . The mean of the response variable is given by xti,j , so that yti,j∼xti,j+et , where et represents random fluctuations in the readout values, due to observational noise, which are taken to be normally distributed. Dynamical changes in state values are given by xti,j=fxt−1i,j,cti,j+vt . Here, fxt−1i,j,c^i,j is a non-linear function that represents interactions between different state variables and the perturbation caused by the test material at a given exposure at concentration c^i,j, and vt represents random fluctuations in state dynamics (which are also normally distributed). Following [Svensson and Schön (2017)], the nonlinear terms are based on an approximation to Gaussian processes, which are obtained using a basis function expansion-based approach. Inference of the model parameters was performed in the framework of Bayesian inference, wherein random draws of the posterior distribution were obtained using Sequential Monte Carlo (SMC), see [Svensson and Schön (2017)] and [Chopin and Papaspiliopoulos (2020)]. For each state space model representing a particular laboratory/readout dataset, SMC simulation was run for three chains at 5,000 iterations each, and first 1,000 iterations were discarded from the final posterior samples. The Rhat convergence diagnostic (Rhat < 1.1) was used to ensure the simulations had converged.
The state space model and posterior model parameter samples were then used to construct posterior predictive distributions of the response of each readout to a given test material for a given concentration and timepoint (see Figure 4). The posterior predictive distributions were used to estimate various statistics on the readout responses (median, 95% credible range etc.), PoDs, Concentration Dependency Scores (CDS) and two Effect Scores (increase and decrease). PoDs were defined as the concentration at which the mean response to a test material exceeded the 95% credible range of control for each timepoint (otherwise the mean response remains within the range of control). PoDs distribution for each timepoint, test material and readout, from which different statistical measures (e.g., the median, 95% credible range etc.) were calculated. The CDS was designed to provide confidence metric in whether an effect in the data was truly concentration dependent.
Description for MucilAir™-HF model: as §7
The model consists of state variables xti,j , response variables ytij and the concentrations of material c^i,j . The response variables yti,j represent the normalized (see below) readout values at timepoint t for material exposure i,j . The mean of the response variable is given by xti,j , so that yti,j∼xti,j+et , where et represents random fluctuations in the readout values, due to observational noise, which are taken to be normally distributed. Dynamical changes in state values are given by xti,j=fxt−1i,j,cti,j+vt . […] For each state space model representing a particular laboratory/readout dataset, SMC simulation was run for three chains at 5,000 iterations each, and first 1,000 iterations were discarded from the final posterior samples. […]

In the case of Benzalkonium chloride [BAC], the “% of Muc5AC area” value is 3.98 ± 1.12% with MucilAir™-HF tissues [1] (day 12, High 1 concentration (third of the tested concentrations)); 5.75 ± 0.93% with MucilAir™-HF tissues [1] (day 12, Low concentration (first of the tested concentrations)); 5.37 ± 1.06% in the series on MucilAir™-HF tissues [1] (day 12, Medium concentration (second of the tested concentrations)). Moreover, the “Cytokines/chemokines modulated (in words)” value with MucilAir™-HF tissues [2] (30 min/day exposure) is “increase in CCL7, IL-1α and IL-6; also recorded: downregulation of MMP-7 only”; in the series on MucilAir™-HF tissues [2] (exposure time/day not given) it was “IL-1ra showed upregulated levels”. In addition, the MinPoD in the series on MucilAir™-HF tissues [2] (Day 8) was determined as 1.822 μg/cm2; in the series on MucilAir™-HF tissues [2] (Day 12), 1.409 μg/cm2; in the series with MucilAir™-HF tissues [4], 2.6 μg/cm2. For the same compound, the “Tissue barrier integrity (TEER) change (in words)” value with MucilAir™-HF tissues [3] is given as “trigger changes in tissue barrier integrity”.

With “Carboxymethylcellulose sodium salt [CMC]”, the “MCC change (in words)” value in the series on MucilAir™-HF tissues [5] is on record as “concentration-dependent reduction in the MCC only on day 1”. Moreover, the BER_min in the series with MucilAir™-HF model was determined as 2.393.

For the compound `COc1cccc2c1C(=O)c1c(O)c3c(c(O)c1C2=O)C[C@@](O)(C(=O)CO)C[C@@H]3O[C@H]1C[C@H](N)[C@H](O)[C@H](C)O1` [Doxorubicin, Doxorubicin hydrochloride], the “Cytokines/chemokines modulated (in words)” value was “tendency towards downregulation of the inflammatory and degradation of extracellular matrix/fibrosis responses; also recorded: dual effect with the anti-inflammatory IL-1ra response” in the series with EpiAlveolar™ tissues [6]; “tendency towards downregulation of the inflammatory and degradation of extracellular matrix/fibrosis responses” in the series on EpiAlveolar™ tissues [7]. Besides, the MinPoD is listed as 0.1566 μg/cm2 in the series with EpiAlveolar™ tissues [6] (Day 4, biomarker MMP-3); 0.1333 μg/cm2 in the series on EpiAlveolar™ tissues [6] (Day 8, biomarker MMP-3); 0.1298 μg/cm2 with EpiAlveolar™ tissues [6] (Day 12, biomarker MMP-9); 0.2843 μg/cm2 in the series on EpiAlveolar™ tissues [7] (Day 1, biomarker CCL2); 0.1115 μg/cm2 with EpiAlveolar™ tissues [7] (Day 4, biomarker CCL2); 0.07617 μg/cm2 in the series with EpiAlveolar™ tissues [7] (Day 8, biomarker CCL7). Besides, the MinPoD in the series with EpiAlveolar™ tissues [7] (Day 12, biomarker CCL7) was 0.06864 μg/cm2; in the series with EpiAlveolar™ tissues [8] (Day 1, biomarker 111), 0.002879 μg/cm2; in the series on EpiAlveolar™ tissues [8] (Day 4, biomarker 111) it was 0.00076 μg/cm2; in the series on EpiAlveolar™ tissues [8] (Day 8, biomarker 111), 0.0007958 μg/cm2; with EpiAlveolar™ tissues [8] (Day 12, biomarker 111), 0.000701 μg/cm2. Moreover, in the series with EpiAlveolar™ tissues [8], the “Median change, 171 - INTRAFLAGELLAR_TRANSPORT” value is 0.04. Moreover, the BER_min is on record as 0.2187 in the series with EpiAlveolar™ model (Day 1, EpiAlveolar™ model Laboratory-2); 0.002215 in the series on EpiAlveolar™ model (Day 1, Transcriptomics); 0.1204 in the series with EpiAlveolar™ model (Day 4, EpiAlveolar™ model Laboratory-1); 0.08579 in the series with EpiAlveolar™ model (setting [12]); 0.0005847 in the series with EpiAlveolar™ model (Day 4, Transcriptomics); 0.1025 in the series with EpiAlveolar™ model (setting [13]). Further, the BER_min in the series on EpiAlveolar™ model (setting [14]) is recorded as 0.05859; in the series with EpiAlveolar™ model (Day 8, Transcriptomics), 0.0006121; in the series on EpiAlveolar™ model (setting [15]) it was 0.09985; with EpiAlveolar™ model (setting [16]), 0.0528; in the series on EpiAlveolar™ model (Day 12, Transcriptomics) it was 0.0005393. Moreover, in series [9], the Plasma conc entry is “Plasma conc 1.3 μM”. In addition, in series [10], the Risk entry is “High”. In addition, the Risk classification result in series [10] is given as “High”. Also, the “Histological changes compared to vehicle and control groups (in words)” value in the series with EpiAlveolar™ tissues [11] is “minor increase in epithelial thinning and a minor increase in the numbers of degenerate cells were observed by day 4”.

Regarding `CCCCc1oc2ccccc2c1C(=O)c1cc(I)c(OCCN(CC)CC)c(I)c1` [Amiodarone, Amiodarone hydrochloride], the “Cytokines/chemokines modulated (in words)” value in the series with EpiAlveolar™ tissues [6] is “upregulated levels of ICAM-1”; in the series on EpiAlveolar™ tissues [7], “upregulated levels of ICAM-1; also recorded: downregulated levels of MMP-1 and MMP-2”. The MinPoD came out at 1.317 μg/cm2 in the series on EpiAlveolar™ tissues [6] (Day 8, biomarker ICAM-1); 0.971 μg/cm2 with EpiAlveolar™ tissues [6] (Day 12, biomarker ICAM-1); 6.9528 μg/cm2 with EpiAlveolar™ tissues [7] (Day 4, biomarker MMP-1); 5.203 μg/cm2 in the series with EpiAlveolar™ tissues [7] (Day 8, biomarker ICAM-1); 5.033 μg/cm2 in the series with EpiAlveolar™ tissues [7] (Day 12, biomarker ICAM-1); 0.008474 μg/cm2 with EpiAlveolar™ tissues [8] (Day 4, biomarker 30). Also, the MinPoD with EpiAlveolar™ tissues [8] (Day 8, biomarker 30) is 0.008494 μg/cm2; in the series on EpiAlveolar™ tissues [8] (Day 12, biomarker 30), 0.00835 μg/cm2. Moreover, the BER_min in the series with EpiAlveolar™ model (setting [12]) is given as 3.4764; in the series on EpiAlveolar™ model (Day 4, Transcriptomics), 0.004237; with EpiAlveolar™ model (setting [13]) it was 0.6586; with EpiAlveolar™ model (setting [14]), 2.602; in the series on EpiAlveolar™ model (Day 8, Transcriptomics), 0.004247; in the series on EpiAlveolar™ model (setting [15]), 0.4855. The BER_min was 2.516 in the series on EpiAlveolar™ model (setting [16]) and 0.004174 in the series with EpiAlveolar™ model (Day 12, Transcriptomics). In addition, the “Patients developing Amiodarone-induced pulmonary fibrosis following typical Amiodarone pneumonitis” value in the series with patients is on record as 5%–7%. Further, the Risk result in series [10] is “High”. Further, in series [10], the Risk classification entry is “High”. In addition, the “Histological changes compared to vehicle and control groups (in words)” value in the series on EpiAlveolar™ tissues [11] was “changes were not observed”.

(Values after PMC11885506, “Evaluation of a non-animal toolbox informed by adverse outcome pathways for human inhalation safety” (Frontiers in Toxicology, 2025).)
